Data taken from patent publication US20150051262A1, “NMDA RECEPTOR MODULATORS AND USES THEREOF” (Northwestern University, priority 2011, published 2015).
Read-outs that look alike come from different tables or passages of the source. Residues, ends and D or L forms follow the SMILES beside them.

Experiments:
NMDA receptor = NMDA receptor (Rattus norvegicus, UniProt P35439); assay: [^3H] MK-801 binding assay; conditions: for Emax: read-out: Efficacy (% Increase in [^3H] MK-801 Binding)
[1] = system: MDCK (Madin-Darby Canine Kidney Cells); assay: in vitro; conditions: concentration 5 μM; for Papp (10^−6 cm/sec): HBSS pH 7.4
Experimental: Procedure. Permeability of test compounds was assessed using MDCK (Madin-Darby Canine Kidney Cells) using the below parameters. • Test concentration: 5 μM (n=3) • Buffer: HBSS pH 7.4 • Time points: 0, 15, 30, 60 and 90 min • Analysis: Parent compound monitoring using LC-MS/MS

[2] = Kinetic aqueous solubility (pION method); type: physicochemical; conditions: pH 7.4, conc. tested 200 μM with 1% DMSO, 16 h incubation
[3] = Metabolic stability in liver microsomes, rat; type: in vitro ADME; conditions: Rat (M) microsomes, 1 μM
Experimental: (§1) Metabolic stability was assessed in liver microsomes as well as in hepatocytes with few compounds.
(§2) Procedure for microsomal stability: • Species: Rat and human • Test concentration: 1 μM (n=2) • Protein concentration: 0.125 mg/mL • Time points: 0, 5, 15, 30 and 60 minutes • Controls: Minus NADPH and buffer • Analysis: Parent compound monitoring LC-MS/MS (Peak area ratios)

[4] = Metabolic stability in liver microsomes, human; type: in vitro ADME; conditions: Human (M) microsomes, 1 μM
Experimental: as §1, §2

[5] = Metabolic stability in hepatocytes, human; type: in vitro ADME; conditions: Human (H) hepatocytes, 10 μM
Experimental: as §1
(§3) Procedure for hepatocyte stability: • Stock preparation: DMSO • Buffer: Krebs Henseleit Buffer • Total Incubation volume: […] • Cell density: 1 million cells/mL • Test concentration: 10 μM with 0.5% DMSO (n=2) • Time points: 0 and 60 min • Analysis: LC-MS/MS

floating behavior [6] = assay: Porsolt test procedure 2; type: in vivo, Sprague Dawley rats; conditions: 1 hr post-dosing
Experimental: The antidepressant-like effects of test compounds were examined with the rat Porsolt test as described in Page et al. (1999) and Burgdorf et al. (2009). Male Sprague Dawley rats (2-3 month old) were used in this study. Animals were dosed with test compounds (0.3 mg/kg IV) or sterile saline vehicle (1 ml/kg IV tail vein) 1 hr before a single test session. […] Water was changed after every other animal. […] CM-6A, CM-7A, CM-8A, and CM-9A were tested in the Porsolt test. CM-5A was not tested in the Porsolt test.
Animals received a single 15 min Porsolt habituation session on the day before the first 5 min Porsolt test. N=6 per group. *P<0.05 Fisher's PLSD post hoc test vs. vehicle.

[7] = system: Schaffer collateral-evoked NMDA EPSCs in CA1 pyramidal neurons; assay: Long-term potentiation (LTP) assay procedure 2; type: cell-based, Sprague-Dawley rats; conditions: 1 μM, FIG. 8, P<0.05
Experimental: Assays were conducted as described in Zhang et al. (2008). Sprague-Dawley rats (12-18 days old; Taconic Farms) were deeply anesthetized with isoflurane and decapitated. Brains was removed rapidly, submerged in ice-cold artificial cerebrospinal fluid (ACSF, 2-4° C.), which contained (in mM): 124 NaCl, 4 KCl, 2 MgSO4, 2 CaC12, 1.25 NaH2PO4, 26 NaHCO3, 10 glucose; at pH 7.4, gassed continuously with 95% O2/5% CO2). Brains were hemisected, the frontal lobes cut off, and individual hemispheres glued using cyanoacrylate adhesive onto a stage immersed in ice-cold ACSF gassed continuously with 95% O2/5% CO2 during slicing. […] Bath application of test compounds (1 μM) was applied 30 min prior to application of Schaffer collateral stimulus trains to elicit LTP. LTP was induced by stimulation of Schaffer collateral axons with four high frequency theta burst stimulus trains of 10×100 Hz/5 pulse bursts each, applied at an inter-burst interval of 200 ms. Each train was 2 s in duration, and trains were applied 15 s apart.

[8] = Metabolic stability in hepatocytes, rat; type: in vitro ADME; conditions: Rat (H) hepatocytes, 10 μM
Experimental: as §1, §3

floating behavior [9] = assay: Porsolt test procedure 2; type: in vivo, Sprague Dawley rats; conditions: single dose (0.3 mg/kg IV), 24 hrs post-dosing, FIG. 11C
[10] = single dose 0.3 mg/kg IV, FIG. 11A
[11] = single dose (0.3 mg/kg IV), FIG. 11B

Structure (SMILES): C[C@@H](O)[C@H](NC(=O)[C@@H]1CCCN1C(=O)[C@@H]1CCCN1C(=O)[C@@H](N)CO)C(N)=O [CM-1, (S)-N-((2S,3R)-1-amino-3-hydroxy-1-oxobutan-2-yl)-1-((S)-1-((S)-2-amino-3-hydroxypropanoyl)pyrrolidine-2-carbonyl)pyrrolidine-2-carboxamide] (H-SPPT-NH2)
- EC50 (NMDA receptor): 0.005 nM

Structure (SMILES): C[C@@H](O)[C@H](N)C(=O)N1CCC[C@H]1C(=O)N1CCC[C@H]1C(=O)N[C@@H](CO)C(N)=O [CM-2, (S)-N-((S)-1-amino-3-hydroxy-1-oxopropan-2-yl)-1-((S)-1-((2S,3R)-2-amino-3-hydroxybutanoyl)pyrrolidine-2-carbonyl) pyrrolidine-2-carboxamide] (H-TPPS-NH2)
- Efficacy (% Increase in [^3H] MK-801 Binding) (NMDA receptor; best-fit top value, 50 μM glutamate): 24%
- EC50 (NMDA receptor; rat forebrain membranes, 50 μM glutamate, read-out: Potency (EC50)): 0.006 nM

Structure (SMILES): NC(=O)[C@H](CO)NC(=O)[C@@H]1CCCN1C(=O)[C@@H]1CCCN1C(=O)[C@@H](N)CO [CM-3, (S)-N-((S)-1-amino-3-hydroxy-1-oxopropan-2-yl)-1-((S)-1-((S)-2-amino-3-hydroxy-propanoyl)-pyrrolidine-2-carbonyl)-pyrrolidine-2-carboxamide] (H-SPPS-NH2)
- EC50 (NMDA receptor): 0.016 nM

Structure (SMILES): Cc1ccc(C[C@@]2(C(=O)N[C@H](C(N)=O)[C@@H](C)O)CCCN2C(=O)[C@@H]2CCCN2C(=O)[C@@H](N)[C@@H](C)O)cc1 [CM-5A, (R)-N-((2S,3R)-1-amino-3-hydroxy-1-oxobutan-2-yl)-1-((S)-1-((2S,3R)-2-amino-3-hydroxybutanoyl)pyrrolidine-2-carbonyl)-2-(4-methylbenzyl) pyrrolidine-2-carboxamide]
- Permeability classification [1]: Low (≦3 × 10^−6 cm/sec)
- Recovery [1]: 100
- Mean Solubility (N = 3) at pH [2]: >200
- % Remaining at 60 minutes [3]: 95%
- Half-life [3]: >1 h
- Stability Class [3]: Stable (% Remaining >90%)
- % Remaining at 60 minutes [4]: 86%
- Half-life [4]: >1 h
- Stability Class [4]: Moderate (% Remaining 70-90%)

Structure (SMILES): CC(O)C(N)C(=O)N1CCCC1C(=O)N1CCCC1(Cc1ccc(F)cc1)C(=O)NC(C(N)=O)C(C)O (centres unmarked) [CM-6]
- Emax (NMDA receptor): 12%

Structure (SMILES): C[C@@H](O)[C@H](N)C(=O)N1CCC[C@H]1C(=O)N1CCC[C@@]1(Cc1ccc(C(F)(F)F)cc1)C(=O)N[C@H](C(N)=O)[C@@H](C)O [CM-7A, (R)-N-((2S,3R)-1-amino-3-hydroxy-1-oxobutan-2-yl)-1-((S)-1-((2S,3R)-2-amino-3-hydroxybutanoyl)pyrrolidine-2-carbonyl)-2-(4-(trifluoromethyl)benzyl) pyrrolidine-2-carboxamide]
- Permeability classification [1]: Low (≦3 × 10^−6 cm/sec)
- Recovery [1]: 68
- Papp (10^−6 cm/sec) [1]: 0.11 ± 0.0 10^−6 cm/sec
- % Remaining at 60 minutes [5]: 92%
- Half-life [5]: >1 h
- Stability Class [5]: Stable (% Remaining >90%)
- floating time in the Porsolt test (floating behavior [6]; [10]): produced an antidepressant-like effect
- floating time in the Porsolt test (floating behavior [6]; [11]): produced an antidepressant-like effect
- long-term potentiation after high frequency stimulation (fEPSP slope) [7]: increased long-term potentiation
- % Remaining at 60 minutes [8]: 76%
- Half-life [8]: >1 h
- Stability Class [8]: Moderate (% Remaining 70-90%)
- floating time in the Porsolt test (floating behavior [9]): produced an antidepressant-like effect

Structure (SMILES): CC(O)C(N)C(=O)N1CCCC1C(=O)N1CCCC1(Cc1ccc(C(F)(F)F)cc1)C(=O)NC(C(N)=O)C(C)O (centres unmarked) [CM-7]
- EC50 (NMDA receptor): 10.6 nM
- Emax (NMDA receptor): 13%

Structure (SMILES): Cc1cccc(C[C@@]2(C(=O)N[C@H](C(N)=O)[C@@H](C)O)CCCN2C(=O)[C@@H]2CCCN2C(=O)[C@@H](N)[C@@H](C)O)c1 [CM-8A, (R)-N-((2S,3R)-1-amino-3-hydroxy-1-oxobutan-2-yl)-1-((S)-1-((2S,3R)-2-amino-3-hydroxybutanoyl)pyrrolidine-2-carbonyl)-2-(3-methylbenzyl) pyrrolidine-2-carboxamide]
- Permeability classification [1]: Low (≦3 × 10^−6 cm/sec)
- Recovery [1]: 83
- Papp (10^−6 cm/sec) [1]: 0.14 ± 0.01 10^−6 cm/sec
- floating time in the Porsolt test (floating behavior [6]; [10]): produced an antidepressant-like effect
- floating time in the Porsolt test (floating behavior [6]; [11]): produced an antidepressant-like effect
- Mean Solubility (N = 3) at pH [2]: >200
- % Remaining at 60 minutes [3]: 91%
- Half-life [3]: >1 h
- Stability Class [3]: Stable (% Remaining >90%)
- % Remaining at 60 minutes [4]: 75%
- Half-life [4]: >1 h
- Stability Class [4]: Moderate (% Remaining 70-90%)
- long-term potentiation after high frequency stimulation (fEPSP slope) [7]: increased long-term potentiation
- floating time in the Porsolt test (floating behavior [9]): produced an antidepressant-like effect

Structure (SMILES): Cc1cccc(CC2(C(=O)NC(C(N)=O)C(C)O)CCCN2C(=O)C2CCCN2C(=O)C(N)C(C)O)c1 (centres unmarked) [CM-8]
- EC50 (NMDA receptor): 0.006 nM
- Emax (NMDA receptor): 16%

Structure (SMILES): CC(O)C(N)C(=O)N1CCCC1C(=O)N1CCCC1(Cc1cccc(F)c1)C(=O)NC(C(N)=O)C(C)O (centres unmarked) [CM-9]
- EC50 (NMDA receptor): 0.007 nM
- Emax (NMDA receptor): 15%

Structure (SMILES): C[C@@H](O)[C@H](NC(=O)C1(Cc2ccccc2)CCCN1C(=O)[C@@H]1CCCN1C(=O)[C@@H](N)CO)C(N)=O (stereo partly drawn) [CM-10, N-((2S,3R)-1-amino-3-hydroxy-1-oxobutan-2-yl)-1-((S)-1-((S)-2-amino-3-hydroxypropanoyl)pyrrolidine-2-carbonyl)-2-benzylpyrrolidine-2-carboxamide]
- Emax (NMDA receptor): 16%

Structure (SMILES): COc1ccc(CC2(C(=O)N[C@H](C(N)=O)[C@@H](C)O)CCCN2C(=O)[C@@H]2CCCN2C(=O)[C@@H](N)[C@@H](C)O)cc1 (some centres unmarked) [CM-11]
- EC50 (NMDA receptor): 0.013 nM
- Emax (NMDA receptor): 9%

Structure (SMILES): CC(O)C(N)C(=O)N1CCCC1C(=O)N1CCCC1(Cc1cc(Br)cc(Br)c1)C(=O)NC(C(N)=O)C(C)O (centres unmarked) [CM-12]
- EC50 (NMDA receptor): 2.21 nM
- Emax (NMDA receptor): 13%

Structure (SMILES): COc1cccc(CC2(C(=O)NC(C(N)=O)C(C)O)CCCN2C(=O)C2CCCN2C(=O)C(N)C(C)O)c1 (centres unmarked) [CM-13]
- Emax (NMDA receptor): 10%

Structure (SMILES): COc1cc(CC2(C(=O)NC(C(N)=O)C(C)O)CCCN2C(=O)C2CCCN2C(=O)C(N)C(C)O)cc(OC)c1OC (centres unmarked) [CM-14]
- EC50 (NMDA receptor): 0.443 nM
- Emax (NMDA receptor): 8%

Structure (SMILES): CC/C(=C(/CC)c1ccc(O)cc1)c1ccc(O)cc1 [DES, reference compound]
- Mean Solubility (N = 3) at pH [2]: 2.6 ± 2.1
